Assay results as given in US4379917A, “6"-(Substituted)-apramycin antibiotic derivatives and intermediates and starting materials therefor” (Eli Lilly and Company, priority 1981, dated 1983).
Like-named read-outs stand apart in the source and are kept apart here.

Assays:
Assay type in all cases: cell-based
[1] = test system: Klebsiella pneumoniae KL2; assay: MIC by standard agar dilution test; settings: KL2, Table 1, agar dilution, read-out: Minimum Inhibitory Concentration
[2] = test system: Pseudomonas aeruginosa Ps9; assay: MIC by standard agar dilution test
[3] = test system: Citrobacter freundii CF17; assay: MIC by standard agar dilution test
Salmonella typhimurium = assay: MIC by standard agar dilution test; settings: Salmonella enterica, read-out: Minimum Inhibitory Concentration
[4] = test system: Bordetella bronchiseptica 16; assay: MIC by standard agar dilution test
[5] = test system: Pseudomonas solanacearum X185; assay: microbe, parasite or virus in culture; settings: Ralstonia solanacearum, X185, read-out: Minimum Inhibitory Concentration
Salmonella typhosa SA12 = assay: MIC by standard agar dilution test; settings: Salmonella enterica, read-out: Minimum Inhibitory Concentration
Proteus morganii PR2 = assay: MIC by standard agar dilution test; settings: Morganella morganii, PR2; Table 1; agar dilution; read-out: Minimum Inhibitory Concentration
Proteus morganii PR1 = assay: MIC by standard agar dilution test; settings: Morganella morganii, PR1; Table 1; agar dilution; read-out: Minimum Inhibitory Concentration
Escherichia coli EC14 = assay: MIC by standard agar dilution test; settings: EC14, Table II, agar dilution, read-out: Minimum Inhibitory Concentration
[6] = test system: Pseudomonas aeruginosa 4276; assay: MIC by standard agar dilution test
[7] = test system: Enterobacter aerogenes EB17; assay: MIC by standard agar dilution test; settings: Klebsiella aerogenes, EB17, read-out: Minimum Inhibitory Concentration
[8] = test system: Pseudomonas aeruginosa SF-2; assay: MIC by standard agar dilution test
[9] = test system: Pseudomonas aeruginosa X239; assay: MIC by standard agar dilution test
[10] = test system: Pseudomonas aeruginosa PI23; assay: MIC by standard agar dilution test
[11] = test system: Staphylococcus aureus 3074; assay: MIC by standard agar dilution test; settings: Table II, read-out: Minimum Inhibitory Concentration
Description: (§1) The antibacterial activity of the antibiotic compounds of this invention is illustrated by the following in vitro and in vivo test data obtained with representative compounds. In Tables I and II the minimum inhibitory concentration (MIC) for representative compounds against a wide range of gram-positive and gram-negative bacteria is presented. The MIC values were obtained by the standard agar dilution test.

[12] = test system: Streptococcus faecalis X66; assay: MIC by standard agar dilution test; settings: Enterococcus faecalis, X66; Table II; agar dilution; read-out: Minimum Inhibitory Concentration
[13] = test system: Pseudomonas aeruginosa X528; assay: MIC by standard agar dilution test
Serratia marcescens SE2 = assay: MIC by standard agar dilution test; settings: SE2, Table 1, agar dilution, read-out: Minimum Inhibitory Concentration
[14] = test system: Pseudomonas aeruginosa X48; assay: MIC by standard agar dilution test
Proteus morganii PR15 = assay: MIC by standard agar dilution test; settings: Morganella morganii, PR15; Table II; agar dilution; read-out: Minimum Inhibitory Concentration
[15] = test system: Staphylococcus aureus 3055; assay: MIC by standard agar dilution test
[16] = test system: Enterobacter cloacae EN453; assay: MIC by standard agar dilution test; settings: EN453, Table 1, agar dilution, read-out: Minimum Inhibitory Concentration
[17] = test system: Pseudomonas aeruginosa Ps25; assay: MIC by standard agar dilution test
[18] = test system: Klebsiella pneumoniae KL14; assay: MIC by standard agar dilution test; settings: KL14, read-out: Minimum Inhibitory Concentration
Serratia marcescens X99 = assay: MIC by standard agar dilution test
[19] = test system: Enterobacter aerogenes EB6; assay: MIC by standard agar dilution test; settings: Klebsiella aerogenes
[20] = test system: Pseudomonas aeruginosa Ps15; assay: MIC by standard agar dilution test
Proteus inconstans PV25 = assay: MIC by standard agar dilution test; settings: Providencia alcalifaciens, PV25; Table 1; agar dilution; read-out: Minimum Inhibitory Concentration
[21] = test system: Enterobacter cloacae EB24; assay: MIC by standard agar dilution test
Serratia marcescens SE3 = assay: MIC by standard agar dilution test
Erwinia amylovora = assay: MIC by standard agar dilution test; settings: Table II, read-out: Minimum Inhibitory Concentration
Description: as §1

[22] = SE3, Table 1, read-out: Minimum Inhibitory Concentration

Measured: MIC

CN[C@@H]1[C@@H](O[C@H]2O[C@H](COS(C)(=O)=O)[C@@H](N)[C@H](O)[C@H]2O)O[C@H]2C[C@@H](N)[C@@H](O[C@H]3[C@H](O)[C@@H](O)[C@H](N)C[C@@H]3N)O[C@@H]2[C@@H]1O [Test Compound 1, 6"-O-(Methanesulfonyl)apramycin]
4 µg/mL: [3]; CF17, read-out: Minimum Inhibitory Concentration | Salmonella typhimurium | Salmonella typhosa SA12 | [7] | [9]; X239, read-out: Minimum Inhibitory Concentration, Table II | [11] | [18] | Serratia marcescens X99; X99, read-out: Minimum Inhibitory Concentration | [19]; EB6, read-out: Minimum Inhibitory Concentration | [21]; EB24, read-out: Minimum Inhibitory Concentration
2 µg/mL: [15]; Staphylococcus aureus, 3055, read-out: Minimum Inhibitory Concentration
8 µg/mL: [1] | Proteus morganii PR1 | Escherichia coli EC14 | Serratia marcescens SE2 | [16] | Proteus inconstans PV25 | Serratia marcescens SE3; [22]
128 µg/mL: [8]; SF2, Table 1, agar dilution, read-out: Minimum Inhibitory Concentration | [9]; X239, Table 1, read-out: Minimum Inhibitory Concentration | [13]; X528, Table 1, agar dilution, read-out: Minimum Inhibitory Concentration | [14]; X48, Table 1, agar dilution, read-out: Minimum Inhibitory Concentration | [20]; PS15, Table 1, agar dilution, read-out: Minimum Inhibitory Concentration
64 µg/mL: [17]; PS25, Table 1, agar dilution, read-out: Minimum Inhibitory Concentration
1 µg/mL: [5]
32 µg/mL: Proteus morganii PR2 | [12] | Proteus morganii PR15
16 µg/mL: [4]; Bordetella bronchiseptica, 16, Table II, agar dilution, read-out: Minimum Inhibitory Concentration | Serratia marcescens SE3; SE3, Table II, read-out: Minimum Inhibitory Concentration
> 128 µg/mL: [2]; PS9, Table 1, agar dilution, read-out: Minimum Inhibitory Concentration | [6]; Pseudomonas aeruginosa, 4276, Table 1, agar dilution, read-out: Minimum Inhibitory Concentration | [10]; PI23, Table 1, agar dilution, read-out: Minimum Inhibitory Concentration

CN[C@@H]1[C@@H](O[C@H]2O[C@H](COS(=O)(=O)c3ccc(C)cc3)[C@@H](N)[C@H](O)[C@H]2O)O[C@H]2C[C@@H](N)[C@@H](O[C@H]3[C@H](O)[C@@H](O)[C@H](N)C[C@@H]3N)O[C@@H]2[C@@H]1O [Test Compound 2, 6"-O-(Para-toluenesulfonyl)apramycin]
16 µg/mL: [1] | Proteus morganii PR2 | Proteus morganii PR1 | [9]; X239, Table II, read-out: Minimum Inhibitory Concentration | [12] | Serratia marcescens SE2 | Proteus morganii PR15 | [16] | Serratia marcescens X99; X99, Table 1, agar dilution, read-out: Minimum Inhibitory Concentration | [19]; EB6, Table 1, agar dilution, read-out: Minimum Inhibitory Concentration | Proteus inconstans PV25 | [21]; EB24, Table 1, agar dilution, read-out: Minimum Inhibitory Concentration | Serratia marcescens SE3; [22]
4 µg/mL: [3]; CF17, Table II, agar dilution, read-out: Minimum Inhibitory Concentration | Salmonella typhimurium; Table II, agar dilution | Escherichia coli EC14
1 µg/mL: [5] | Salmonella typhosa SA12
64 µg/mL: [4]; Bordetella bronchiseptica, 16, read-out: Minimum Inhibitory Concentration
< 0.5 µg/mL: [15]; Staphylococcus aureus, 3055, Table II, agar dilution, read-out: Minimum Inhibitory Concentration
> 128 µg/mL: [2]; PS9, read-out: Minimum Inhibitory Concentration | [6]; Pseudomonas aeruginosa, 4276, read-out: Minimum Inhibitory Concentration | [8]; SF2, read-out: Minimum Inhibitory Concentration | [9]; X239, read-out: Minimum Inhibitory Concentration, Table 1 | [10]; PI23, read-out: Minimum Inhibitory Concentration | [13]; X528, read-out: Minimum Inhibitory Concentration | [14]; X48, read-out: Minimum Inhibitory Concentration | [17]; PS25, read-out: Minimum Inhibitory Concentration | [20]; PS15, read-out: Minimum Inhibitory Concentration
32 µg/mL: Serratia marcescens SE3; SE3, read-out: Minimum Inhibitory Concentration, Table II
2 µg/mL: [11] | Erwinia amylovora | [18]
